Results on 38 molecules are retold here after ChEMBL document CHEMBL1121746, “Anticoccidial derivatives of 6-azauracil. 4. A 1000-fold enhancement of potency by phenyl sulfide and phenyl sulfone side chains” (J Med Chem, 1981).

The subject of data set [1] is Eimeria tenella. Description: Minimum effective concentration in feed to protect chickens against infections caused by Eimeria tenella. In kind it is functional.
Data set [2] can be described thus: Plasma half-life in 2 weeks-old chickens. As to conditions: chicken. The data set is classed as ADME, organism-based, Gallus gallus.
A short description of data set [3]: Plasma half-life in 6-8 weeks old broiler chickens. In kind it is ADME, organism-based, Gallus gallus. Conditions: chicken.

As to `Cc1cc(-n2ncc(=O)[nH]c2=O)cc(C)c1Sc1ccc(I)cc1`, in data set [1], the MEC came to 15 p.p.m. For the molecule `O=c1cnn(-c2ccc(Sc3ccc(Cl)cc3)cc2)c(=O)[nH]1`, the MEC in data set [1] is on record as 4 p.p.m. The same measure, in the same setting: next, `O=c1cnn(-c2ccc(Sc3ccc(Br)cc3)c(Cl)c2)c(=O)[nH]1`: 2 p.p.m. The same measure, in the same setting: with `CSc1c(Cl)cc(-n2ncc(=O)[nH]c2=O)cc1Cl` the figure was 30 p.p.m; with `Cc1ccccc1S(=O)(=O)c1ccc(-n2ncc(=O)[nH]c2=O)cc1`, >125 p.p.m. Still for that read-out and setting: with `O=c1cnn(-c2ccc(S(=O)(=O)c3ccc(Cl)cc3)cc2)c(=O)[nH]1` the figure was 4 p.p.m; with `Cc1cc(-n2ncc(=O)[nH]c2=O)cc(Cl)c1Sc1ccc(Cl)cc1`, 0.25 p.p.m. In turn, `CCc1cc(-n2ncc(=O)[nH]c2=O)cc(C)c1Sc1ccc(Cl)cc1` returned an MEC in data set [1] of 60 p.p.m.

Take `O=c1cnn(-c2ccc(Sc3ccc(Cl)cc3)c([N+](=O)[O-])c2)c(=O)[nH]1`: the MEC in data set [1] was 60 p.p.m. On the same count and under the same terms, next, `C[S+]([O-])c1c(Cl)cc(-n2ncc(=O)[nH]c2=O)cc1Cl` (stereo not given): >125 p.p.m.

As for `O=c1cnn(-c2cc(Cl)c(S(=O)(=O)c3ccc(Cl)cc3)c(Cl)c2)c(=O)[nH]1`, the MEC in data set [1] came to 0.5 p.p.m. The same measure, in the same setting: next, `COc1cc(-n2ncc(=O)[nH]c2=O)ccc1S(=O)(=O)c1ccc(Cl)cc1`: >125 p.p.m. Consider `Cc1cc(-n2ncc(=O)[nH]c2=O)ccc1S(=O)(=O)c1ccc(Cl)cc1`, for which the half-life (as a rule, the time in which the quantity being followed falls by half) in data set [2] was 10 h; in data set [3] it was 14.5 h. In data set [1], this molecule had an MEC of 2 p.p.m. For the molecule `O=c1cnn(-c2ccc(Sc3ccc(Cl)cc3)c(Cl)c2)c(=O)[nH]1`, the half-life in data set [3] is 38 h. For the same molecule, the MEC in data set [1] was 2 p.p.m. As for `O=c1cnn(-c2ccc(S(=O)(=O)c3ccc(Cl)cc3)c(Cl)c2)c(=O)[nH]1`, in data set [1], the MEC came to 2 p.p.m. The same measure, in the same setting: next, `CS(=O)(=O)c1c(Cl)cc(-n2ncc(=O)[nH]c2=O)cc1Cl`: >125 p.p.m; `O=c1cnn(-c2cc(Cl)c(Sc3ccccc3)c(Cl)c2)c(=O)[nH]1`: 8 p.p.m; `Cc1ccc(S(=O)(=O)c2ccc(-n3ncc(=O)[nH]c3=O)cc2)cc1`: 250 p.p.m.

The molecule `O=c1cnn(-c2cc(Cl)c(Sc3ccc(Cl)cc3)c(Cl)c2)c(=O)[nH]1` showed a half-life in data set [3] of 47 h. The molecule also registered an MEC in data set [1] of 0.25 p.p.m.

In turn, `O=c1cnn(-c2ccc(S(=O)(=O)c3ccc(Br)cc3)cc2)c(=O)[nH]1` had a half-life in data set [2] of 19 h. This molecule also came in with an MEC in data set [1] of 8 p.p.m. In the case of `O=c1cnn(-c2cc(Cl)c(Sc3ccc(S(=O)(=O)N4CCOCC4)cc3)c(Cl)c2)c(=O)[nH]1`, the MEC in data set [1] is on record as >60 p.p.m. `O=c1cnn(-c2cc(Br)c(Sc3ccc([N+](=O)[O-])cc3)c(Br)c2)c(=O)[nH]1` yielded an MEC in data set [1] of 8 p.p.m. As to `CC(c1ccccc1)S(=O)(=O)c1ccc(-n2ncc(=O)[nH]c2=O)cc1` (stereo not given), the MEC in data set [1] is given as >125 p.p.m. The same measure, in the same setting: with `O=c1cnn(-c2ccc(S(=O)(=O)c3ccc([N+](=O)[O-])cc3)cc2)c(=O)[nH]1` the figure was >250 p.p.m; with `Cc1cc(-n2ncc(=O)[nH]c2=O)cc(C)c1S(=O)(=O)c1ccc(Cl)cc1`, 1 p.p.m. Same read-out and setting: with `Cc1cc(-n2ncc(=O)[nH]c2=O)ccc1[S+]([O-])c1ccc(Cl)cc1` (stereo not given) the figure was 4 p.p.m. Same read-out and setting: with `CC(C)(C)c1ccc(S(=O)(=O)c2ccc(-n3ncc(=O)[nH]c3=O)cc2)cc1` the figure was >250 p.p.m; with `Cc1cc(-n2ncc(=O)[nH]c2=O)cc(C)c1[S+]([O-])c1ccc(Cl)cc1` (stereo not given), 1 p.p.m. Regarding `O=c1cnn(-c2ccc(Sc3ccc([N+](=O)[O-])cc3)cc2)c(=O)[nH]1`, the MEC in data set [1] worked out at 30 p.p.m. Turning to `O=c1cnn(-c2ccc(S(=O)(=O)Cc3ccccc3)cc2)c(=O)[nH]1`, the MEC in data set [1] is listed as >125 p.p.m. Molecule `Cc1cc(-n2ncc(=O)[nH]c2=O)cc(Cl)c1S(=O)(=O)c1ccc(Cl)cc1` gave a half-life in data set [3] of 26 h. Further, the MEC in data set [1] worked out at 15 p.p.m. Molecule `O=c1cnn(-c2ccc(S(=O)(=O)c3ccccc3)cc2)c(=O)[nH]1` showed an MEC in data set [1] of 30 p.p.m. Still for that read-out and setting: with `Cc1cc(-n2ncc(=O)[nH]c2=O)ccc1Sc1ccc(Cl)cc1` the figure was 2 p.p.m; with `Cc1cc(-n2ncc(=O)[nH]c2=O)ccc1S(=O)(=O)c1ccc(Br)cc1`, 15 p.p.m. For `CC(C)(C)c1ccc(Sc2ccc(-n3ncc(=O)[nH]c3=O)cc2Cl)cc1`, in data set [1], the MEC was >60 p.p.m.

The molecule `O=c1cnn(-c2ccc(S(=O)(=O)Cc3ccc(Cl)cc3)cc2)c(=O)[nH]1` showed an MEC in data set [1] of 250 p.p.m. The same measure, in the same setting: next, `O=c1cnn(-c2ccc(Sc3ccc4ccccc4c3)c(Cl)c2)c(=O)[nH]1`: 125 p.p.m. Regarding `Cc1cc(-n2ncc(=O)[nH]c2=O)cc(C)c1Sc1ccc(Cl)cc1` [TIAZURIL], in data set [3], the half-life is 16 h. The molecule further registered an MEC in data set [1] of 0.5 p.p.m.
